Experimental data: patent US20250340556A1, “PYRIMIDOPYRIMIDONE COMPOUNDS AND METHODS OF USE THEREOF” (Soltego, Inc., priority 2022, published 2025)
pEC50, pIC50: −log10 of the molar value. Where two headings read alike, the source gives them in different places.

What was measured:
[1] = ester bond
SIK2 (h) = SIK2 (h) (Homo sapiens (Human), UniProt Q9H0K1); assay: SIK2 kinase activity, Eurofins KinaseProfiler ([γ-33P]-ATP filter assay); format: biochemical; conditions: for IC50: read-out: IC50 nM SIK2
Protocol: (§1) SIK1, 2 and 3 kinase activity was assessed using a Eurofins Cerep S.A. (‘Eurofins’) KinaseProfiler. All compounds were prepared to 50× final assay concentration in 100% DMSO. This working stock of the compound was added to the assay well as the first component in the reaction, followed by the remaining components as detailed in the general assay protocols below. In the standard KinaseProfiler service, there is no pre-incubation step between the compound and the kinase prior to initiation of the reaction. The positive control well contains all components of the reaction, except the compound of interest; however, DMSO (at a final concentration of 2%) is included in these wells to control for solvent effects. The blank wells contain all components of the reaction, with a reference inhibitor replacing the compound of interest. This abolishes kinase activity and establishes the base-line (0% kinase activity remaining).
(§2) SIK2 (h) was incubated with 8 mM MOPS pH 7.0, 0.2 mM EDTA, 100 μM […], 10 mM Magnesium acetate and [γ-33P-ATP](specific activity and concentration as required). The reaction was initiated by the addition of the Mg/ATP mix. After incubation for 40 minutes at room temperature, the reaction was stopped by the addition of phosphoric acid to a concentration of 0.5%, 10 μL of the reaction was then spotted onto a P30 filtermat and washed four times for 4 minutes in 0.425% phosphoric acid and once in methanol prior to drying and scintillation counting.

SIK1 = SIK1 (Homo sapiens (Human), UniProt P57059); assay: cell-based
Sequence of SIK1 (P57059 whole entry): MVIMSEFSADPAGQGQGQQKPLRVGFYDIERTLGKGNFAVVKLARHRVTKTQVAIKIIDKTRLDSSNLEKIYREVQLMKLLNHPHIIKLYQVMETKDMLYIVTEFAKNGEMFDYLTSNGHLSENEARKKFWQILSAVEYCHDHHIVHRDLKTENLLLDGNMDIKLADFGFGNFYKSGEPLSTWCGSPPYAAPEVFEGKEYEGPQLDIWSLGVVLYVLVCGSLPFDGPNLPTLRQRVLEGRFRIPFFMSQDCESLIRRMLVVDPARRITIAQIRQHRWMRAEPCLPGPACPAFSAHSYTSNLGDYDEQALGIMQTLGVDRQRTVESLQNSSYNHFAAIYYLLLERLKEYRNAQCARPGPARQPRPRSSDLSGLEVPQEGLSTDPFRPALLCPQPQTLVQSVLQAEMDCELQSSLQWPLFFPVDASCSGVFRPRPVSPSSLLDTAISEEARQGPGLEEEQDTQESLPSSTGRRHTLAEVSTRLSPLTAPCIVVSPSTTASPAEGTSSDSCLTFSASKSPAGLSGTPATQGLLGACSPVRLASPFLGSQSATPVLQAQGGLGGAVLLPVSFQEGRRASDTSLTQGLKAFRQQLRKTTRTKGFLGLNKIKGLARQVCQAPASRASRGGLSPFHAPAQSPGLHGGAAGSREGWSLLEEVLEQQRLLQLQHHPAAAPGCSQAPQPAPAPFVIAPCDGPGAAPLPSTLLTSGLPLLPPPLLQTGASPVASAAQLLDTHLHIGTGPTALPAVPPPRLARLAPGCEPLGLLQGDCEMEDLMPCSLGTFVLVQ

SIK (h) / SIK1 = SIK (h) / SIK1 (Homo sapiens (Human), UniProt P57059); assay: SIK1 kinase activity, Eurofins KinaseProfiler ([γ-33P]-ATP filter assay); format: biochemical
Protocol: as §1
as §2, with “SIK” for “SIK2”, “[γ-33P]-ATP (specific” for “[γ-33P-ATP](specific”

SIK3 (h) = SIK3 (h) (Homo sapiens (Human), UniProt Q9Y2K2); assay: SIK3 kinase activity, Eurofins KinaseProfiler ([γ-33P]-ATP filter assay); format: biochemical
Protocol: as §1
as §2, with “SIK3 (h) was” for “SIK2 (h) was”, “the reaction is stopped by” for “the reaction was stopped by”, “0.5%, […] of the” for “0.5%, 10 μL of the”

B16 4A5 cells = assay: B16 4A5 cell viability, MTS assay; format: cell-based, mouse; conditions: 72 h
Protocol: B16 4A5 cells were seeded in 24-well plates at 20,000 cells/well, 24 h before the beginning of the treatment with test compounds at 5 concentrations, in triplicates (n=3). […] Additionally, DMSO at 0.1%, used for solubilization of the test compounds, was tested in parallel. The treatments were performed in culture medium containing only 1% of FBS. […] The effects of the compounds on B16 4A5 viability was assessed. To this purpose, cells were incubated during 72 h with 5 concentrations of the compounds, were left untreated, treated with SDS or with DMSO 0.1%.

[2] = test system: living human skin explants; assay: Cell viability of living human skin explants, Masson's trichrome staining (Example 8); format: cell-based; conditions: 1% topical in vehicle E
Protocol: All the tested products were diluted in the vehicle noted as E (Ethanol 65%, Propylene glycol 25%, Transcutol 10%). The diluted solutions were stored at 4° C. within the study period. 36 human skin explants of an average diameter of 11 mm (+1 mm) were prepared on an abdoplasty coming from a person (reference: P2462-AB53) with a III phototype. The explants were kept in survival in BEM culture medium (BIO-EC's Explants Medium) at 37° C. in a humid, 5%-CO2 atmosphere. Study is performed on human skin tissue, obtained from surgical residues in full respect with the Declaration of Helsinki and the article L. 1243-4 of the French Public Health Code.
The excipient E and the tested products were applied topically at a rate of 2 μL per 1 cm^2 explant (˜2 mg/cm^2) and spread and gently rubbed for 10 seconds using a small spatula on day 0 (DO), D3, D5, D7 and D10. […] The culture medium was half renewed (1 ml per well) on D3, D5, D7 and D10. On D0, D3, D4, D5, D6, D7 and D10, the culture media of the irradiated explants (UV) were replaced by HBSS (Hank's Balanced Saline Solution; 1 ml per explant). Then, the explants of the “UV” batch were irradiated using a UV simulator Vibert Lourmat RMX 3W with a dose of 2.25 J/cm^2 of UVA (with 6-8% of UVB) corresponding to 0.5 MED (minimal erythemal dose) on a skin with a III phototype. At the end of the UV irradiation, the explants form the batch TUV were put back in 2 mL of BEM medium. On D0, the 3 explants from the batch TO were collected and cut in two parts. Half was fixed in buffered formalin solution and half was frozen at −80° C. On D10, 3 explants from the concerned batches were collected and treated in the same way than in DO. According to the dispositions mentioned in the study plan, the days of treatments, irradiations and sampling were adjusted to the schedule of working days. After fixation for 24 hours in buffered formalin, the samples were dehydrated and impregnated in paraffin using a Leica PEARL dehydration automat. The samples were embedded using a Leica EG 1160 embedding station. 5-μm-thick sections were made using a Leica RM 2125 Minot-type microtome, and the sections were mounted on Superfrost® histological glass slides. The frozen samples were cut into 7-μm-thick sections using a Leica CM 3050 cryostat. Sections were then mounted on Superfrost®, plus silanized glass slides. The microscopical observations were realized using a Leica DMLB or Olympus BX43 microscope. Pictures were digitized with a numeric DP72 Olympus camera with CellSens storing software.
The cell viability of the epidermal and dermal structures was assessed by microscopical observation of formalin-fixed paraffin-embedded (FFPE) skin sections after Masson's trichrome staining, Goldner variant.

## Cc1cccc(C)c1N1Cc2cnc3nc2N(CCCCC(=O)OCc2cc(ccc2N2CCN(C)CC2)N3)C1=O [SLT-033]
[1]; from Cc1cccc(C)c1N1Cc2cnc(Nc3ccc(N4CCN(C)CC4)c(CO)c3)nc2N(CCCCC(=O)O)C1=O, 15-membered ring, DCC/DMAP/3A MS, DCM/DMF, 7.69 mM, 25.0 °C
  ring closure, isolated yield: 14%
SIK2 (h); Table 6, macrocycles
  IC50: 0.8 nM
SIK1
  pEC50: 8.22

## Cc1cccc(C)c1N1Cc2cnc(Nc3ccc(N4CCN(C)CC4)c(CO)c3)nc2N(CCC(=O)O)C1=O [SLT-020]
SIK (h) / SIK1; Table 5, macrocycle precursors
  IC50: 5 nM
SIK2 (h); Table 5, macrocycle precursors
  IC50: 10 nM
SIK3 (h); Table 5, macrocycle precursors
  IC50: 43 nM

## Cc1cccc(C)c1N1Cc2cnc3nc2N(C/C=C\C(=O)OCc2cc(ccc2N2CCN(C)CC2)N3)C1=O [SLT-073]
SIK2 (h)
  pIC50: 9.15

## COc1cc(Br)c2cc1Nc1ncc3c(n1)N(CCCC(=O)OC2)C(=O)N(c1c(C)cccc1C)C3 [SLT-058]
[1]; from COc1cc(Br)c(CO)cc1Nc1ncc2c(n1)N(CCCC(=O)O)C(=O)N(c1c(C)cccc1C)C2, 14-membered ring, DCC/DMAP/3A MS, DCM/DMF, 4.96 mM, 25.0 °C, 16.0 h
  ring closure, isolated yield: 20%
SIK (h) / SIK1; Table 6, macrocycles
  IC50: 26 nM
SIK2 (h); Table 6, macrocycles
  IC50: 201 nM
SIK3 (h); Table 6, macrocycles
  IC50: 339 nM

## Cc1cccc(C)c1N1Cc2cnc3nc2N(CCC(=O)OCc2cc(ccc2N2CCN(C)CC2)N3)C1=O [SLT-023]
[1]; from Cc1cccc(C)c1N1Cc2cnc(Nc3ccc(N4CCN(C)CC4)c(CO)c3)nc2N(CCC(=O)O)C1=O, 13-membered ring, EDC.HCl/HOBt/DMAP/3A MS, DCM, 8.04 mM, 25.0 °C, 16.0 h
  ring closure, isolated yield: 33%
SIK (h) / SIK1; Table 6, macrocycles
  IC50: 3 nM
SIK2 (h); Table 6, macrocycles
  IC50: 3 nM
SIK3 (h); Table 6, macrocycles
  IC50: 18 nM
B16 4A5 cells; 0.7 μg/mL, compared with DMSO 0.1% control
  cell viability: slightly decreased
B16 4A5 cells; 5 μg/mL, compared with DMSO 0.1% control
  viability of cells: slightly diminished
[2]
  cell viability of epidermal and dermal structures: very slightly decreased
SIK1
  pEC50: 7.06

## Cc1cccc(C)c1N1Cc2cnc3nc2N(CCCOC(=O)C(C)c2cc(ccc2N2CCN(C)CC2)N3)C1=O (centres unmarked) [SLT-071]
SIK2 (h); Table 6, macrocycles
  IC50: 3 nM

## Cc1cccc(C)c1N1Cc2cnc(Nc3ccc(N4CCN(C)CC4)c(CO)c3)nc2N(CCCCC(=O)O)C1=O [SLT-027]
SIK (h) / SIK1; Table 5, macrocycle precursors
  IC50: 2 nM
SIK2 (h); Table 5, macrocycle precursors
  IC50: 5 nM
SIK3 (h); Table 5, macrocycle precursors
  IC50: 21 nM
SIK1
  pEC50: 6.39

## Cc1cccc(C)c1N1Cc2cnc3nc2N(C/C=C/COC(=O)Cc2cc(ccc2N2CCN(C)CC2)N3)C1=O [SLT-068]
SIK2 (h); Table 6, macrocycles
  IC50: 17 nM

## COC(=O)CCCN1C(=O)N(c2c(C)cccc2C)Cc2cnc(Nc3ccc(N4CCN(C)CC4)c(CO)c3)nc21 [SLT-019]
SIK (h) / SIK1; Table 5, macrocycle precursors
  IC50: 2 nM
SIK2 (h); Table 5, macrocycle precursors
  IC50: 3 nM
SIK3 (h); Table 5, macrocycle precursors
  IC50: 8 nM

## Cc1cccc(C)c1N1Cc2cnc3nc2N(CCCCOC(=O)Cc2cc(ccc2N2CCN(C)CC2)N3)C1=O [SLT-059]
[1]; from Cc1cccc(C)c1N1Cc2cnc(Nc3ccc(N4CCN(C)CC4)c(CC(=O)O)c3)nc2N(CCCCO)C1=O, 15-membered ring, 2,4,6-trichlorobenzoyl chloride/TEA, DMAP, toluene/DMF, 5.0 mM, 110.0 °C, 16.0 h
  ring closure, isolated yield: 13%
SIK (h) / SIK1; Table 6, macrocycles
  IC50: 286 nM
SIK2 (h)
  pIC50: < 6.30
SIK2 (h); Table 6, macrocycles
  IC50: 250 nM

## Cc1cccc(C)c1N1Cc2cnc3nc2N(C/C=C/CCOC(=O)c2cc(ccc2N2CCN(C)CC2)N3)C1=O [SLT-079]
SIK2 (h); Table 6, macrocycles
  IC50: 1 nM

## Cc1cccc(C)c1N1Cc2cnc(Nc3ccc(N4CCN(C)CC4)c(CO)c3)nc2N(CCCC(=O)O)C1=O [SLT-025]
SIK (h) / SIK1; Table 5, macrocycle precursors
  IC50: 3 nM
SIK2 (h); Table 5, macrocycle precursors
  IC50: 6 nM
SIK3 (h); Table 5, macrocycle precursors
  IC50: 21 nM

## Cc1cccc(C)c1N1Cc2cnc3nc2N(CCCCOC(=O)C(C)c2cc(ccc2N2CCN(C)CC2)N3)C1=O (centres unmarked) [SLT-070]
SIK2 (h); Table 6, macrocycles
  IC50: 2 nM

## Cc1cccc(C)c1N1Cc2cnc3nc2N(CCCCCOC(=O)c2cc(ccc2N2CCN(C)CC2)N3)C1=O [SLT-038]
[1]; from Cc1cccc(C)c1N1Cc2cnc(Nc3ccc(N4CCN(C)CC4)c(C(=O)O)c3)nc2N(CCCCCO)C1=O, 15-membered ring, 2,4,6-trichlorobenzoyl chloride/TEA, DMAP, toluene/DMF, 5.0 mM, 110.0 °C, 16.0 h
  ring closure, isolated yield: 6%
SIK2 (h); Table 6, macrocycles
  IC50: 1 nM
SIK1
  pEC50: 8.36

## Cc1cccc(C)c1N1Cc2cnc3nc2N(C/C=C\CC(=O)OCc2cc(ccc2N2CCN(C)CC2)N3)C1=O [SLT-062]
SIK2 (h)
  pIC50: 9.10

## COc1cc(N2CCN(C)CC2)c2cc1Nc1ncc3c(n1)N(CCCC(=O)OC2)C(=O)N(c1c(C)cccc1C)C3
[1]; from COc1cc(N2CCN(C)CC2)c(CO)cc1Nc1ncc2c(n1)N(CCCC(=O)O)C(=O)N(c1c(C)cccc1C)C2, 14-membered ring, DCC/DMAP/3A MS, DCM/DMF, 6.69 mM, 25.0 °C, 16.0 h
  ring closure, isolated yield: 6%

## Cc1cccc(C)c1N1Cc2cnc3nc2N(CCCOC(=O)c2cc(ccc2N2CCN(C)CC2)N3)C1=O [SLT-041]
[1]; from Cc1cccc(C)c1N1Cc2cnc(Nc3ccc(N4CCN(C)CC4)c(C(=O)O)c3)nc2N(CCCO)C1=O, 13-membered ring, EDC.HCl/HOBt/DMAP/3A MS, DCM, 7.99 mM, 50.0 °C, 16.0 h
  ring closure, isolated yield: 30%
SIK1
  pEC50: 7.98

## CCCCCCCCCCCCOS(=O)(=O)[O-].[Na+] [SDS, reference compound]
B16 4A5 cells; SDS 0.05%, compared to untreated cells
  viability of cells: strongly and significantly diminished

## COc1cc(F)c2cc1Nc1ncc3c(n1)N(CCCC(=O)OC2)C(=O)N(c1c(C)cccc1C)C3
[1]; from COc1cc(F)c(CO)cc1Nc1ncc2c(n1)N(CCCC(=O)O)C(=O)N(c1c(C)cccc1C)C2, 14-membered ring, DCC/DMAP/3A MS, DCM/DMF, 6.89 mM, 25.0 °C, 16.0 h
  ring closure, isolated yield: 57%

## Cc1cccc(C)c1N1Cc2cnc3nc2N(C/C=C/CC(=O)OCc2cc(ccc2N2CCN(C)CC2)N3)C1=O [SLT-061]
SIK2 (h); Table 6, macrocycles
  IC50: 2 nM
